Measured values reported in US10988465B2, “CXCR4 inhibitors and uses thereof” (X4 Pharmaceuticals, Inc., priority 2016, dated 2021).
Read-outs that look alike come from different tables or passages of the source.

Tests used:
[1] = Mouse brain uptake assay (MBUA), 3 mg/kg IV, 0-1 h, 3 time points; format: in vivo, male CD1 mice; details: for Kp / clearance / half-life / AUC(0-t) / Kp uu: male; for Kp: CD1, mouse, brain/plasma, iv, 3 mg/kg; for clearance / half-life: CD1, plasma, 3 time points; for clearance / half-life / AUC(0-t) / Kp uu / fraction unbound: mouse; for clearance / half-life / AUC(0-t) / Kp uu: 3 mg/kg IV, 0-1 h; for half-life: read-out: t½ (converted); for AUC(0-t) / Kp uu: CD1; for Kp uu: unbound brain/unbound plasma, read-out: Kp, uu
Protocol: Example 38: Pharmacokinetics and Brain Penetration Experiment to Determine Brain and Plasma Concentrations of Compounds after IV Administration to Male CD1 Mice
The study design (9 animals) consisted of administrating the drug (IV: 3 mg/kg (5 mL/kg) via tail vein injection) and collecting samples at terminal bleeding for plasma and brain at 0.083, 0.5 and 1 h. The IV dosing solution was prepared in 50 mM citrate buffer (pH 4.0) at 0.6 mg/mL. The blood collection was performed as follows: the animal was restrained manually and approximately 150 μL blood/time point was collected into a dipotassium EDTA tube via retro orbital puncture under anesthesia with isoflurane. The blood sample was put on ice and centrifuged to obtain a plasma sample (2000 g, 5 min under 4° C.) within 15 minutes. The brain collection was performed as follows: a mid-line incision was made in the animal's scalp and the skin was retracted. Using small bone cutters and rongeurs, the skull overlying the brain was removed. The brain was removed using a spatula and the brain rinsed with cold saline. The brain was placed in screw-top tubes, and the tubes were stored at −70° C. until analysis.
An aliquot of 30 μL sample was added to 150 μL MeCN containing 50 ng/mL IS (Dexamethasone). The mixture was vortexed for 5 min and centrifuged at 14,000 rpm for 5 min. An aliquot of 5 μL supernatant was injected for LC-MS/MS analysis.
An aliquot of 30 μL brain homogenate (brain:PBS=1:3, w/v) sample was added to 150 μL IS in MeCN (Dexamethasone, 50 ng/mL). The mixture was vortexed for 5 min and centrifuged at 14,000 rpm for 5 min. An aliquot of 5 μL supernatant was injected for LC-MS/MS analysis.
The sample analysis was performed on LCMS/MS-003 (API4000, triple quadruple) under the following conditions: positive ion, ESI, MRM detection using dexamethasone as internal standard. HPLC conditions: mobile phase A: H2O (0.025% formic acid (FA) with 1 mM NH4OAc); mobile phase B: MeOH (0.025% FA with 1 mM NH4OAc) on Waters X-Bridge C18 (2.1×50 mm, 2.5 μm) column at 60° C.

in vitro = details: human, Caco-2, pH 7.4
Summary of the method: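 Caco-2 monolayers, checked by TEER with Lucifer yellow as marker, were dosed with 10 μM compound in HBSS pH 7.4 in A-to-B and B-to-A directions. Incubation was 90 min at 37° C, in duplicate. Samples were quantified by LC-MS/MS and Papp calculated.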

[2] = molecular target: T1, Jurkat cells expressing CXCR4 (Homo sapiens, UniProt P61073); assay: Chemokine (CXCL12-AF647) binding inhibition assay; details: CXCL12-AF647 25 ng/mL, read-out: IC50 CXCL-12 binding Jurkat
T1 construct: endogenous in cells; host or cells: Jurkat
Summary of the method: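 Cells in HBSS, 20 mM HEPES, 0.2% BSA, pH 7.4, preincubated 15 min at room temperature with compound, then 25 ng/mL CXCL12-AF647 for 30 min. After washing and paraformaldehyde fixation, bound ligand read by flow cytometry; percent inhibition calculated from MFI relative to unlabeled and ligand-only controls.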

[3] = molecular target: T2, CXCR-4 transfected U87 cell line (U87.CXCR4) (Homo sapiens, UniProt P61073); assay: Intracellular CXCL-12-induced calcium mobilization assay (FLIPR); format: cell-based; details: U87.CXCR4 cells; CXCL-12 25-50 ng/mL; compound added 15 min before; read-out: IC50 CXCL-12 Ca^2+ flux U87.CXCR4+
T2 construct: expressed in transfected cells; host or cells: U87 (U87.CXCR4)
Summary of the method: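 U87 cells stably expressing human CXCR4, loaded with Fluo-2 AM (4 μM final) for 45 min at 37 °C in HBSS/20 mM HEPES/0.2% BSA, pH 7.4. Calcium flux triggered by CXCL-12 (25-50 ng/mL) was followed by FLIPR fluorescence over time at 37 °C.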

[4] = fraction unbound to brain proteins, read-out: Fu (b) %
[5] = fraction unbound to plasma proteins, read-out: Fu (p) %

T2 sequence (P61073 whole entry): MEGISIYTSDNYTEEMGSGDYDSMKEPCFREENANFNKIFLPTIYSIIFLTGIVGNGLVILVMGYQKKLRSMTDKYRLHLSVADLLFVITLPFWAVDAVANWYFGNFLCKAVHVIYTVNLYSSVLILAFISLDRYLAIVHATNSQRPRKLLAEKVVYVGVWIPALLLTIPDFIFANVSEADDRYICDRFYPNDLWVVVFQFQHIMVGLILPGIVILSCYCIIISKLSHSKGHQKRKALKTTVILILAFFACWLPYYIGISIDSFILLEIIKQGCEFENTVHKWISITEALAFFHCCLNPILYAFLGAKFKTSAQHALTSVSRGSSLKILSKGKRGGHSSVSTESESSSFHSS
T1 sequence (P61073 whole entry): as above

Kp [1]	clearance [1]	half-life [1]	AUC(0-t) ([1]; brain, read-out: AUClast (b))	AUC(0-t) ([1]; plasma, read-out: AUClast (P))	Kp uu [1]	fraction unbound [1, 4]	fraction unbound [1, 5]	Papp A→B at 90 min, 10 μM (in vitro)	Papp B→A at 90 min, 10 μM (in vitro)	efflux ratio at 90 min, 10 μM (in vitro)	IC50 [2]	IC50 [3]	SMILES
0.34	282 mL/min/kg	17.8 min	55.3 ng·h/mL	161 ng·h/mL	0.02	0.004	0.076	0.1 to 10 ×10⁻⁶ cm/s	10 to 30 ×10⁻⁶ cm/s	0.1 to 10	0.01 to 100 nM	0.01 to 100 nM	Cc1cccnc1[C@@H]1CCC[C@H](c2nc3ccccc3n2CC2CCN(C)CC2)N1C [I-15, 2-((2R,6S)-1-methyl-6-(3-methylpyridin-2-yl)piperidin-2-yl)-1-((1-methylpiperidin-4-yl)methyl)-1H-benzo[d]imidazole]
0.35	101 mL/min/kg	38.2 min	112 ng·h/mL	316 ng·h/mL	0.04	0.018	0.163	0.1 to 10 ×10⁻⁶ cm/s	10 to 30 ×10⁻⁶ cm/s	0.1 to 10	0.01 to 100 nM	0.01 to 100 nM	Cc1cccnc1[C@@H]1CCC[C@H](c2nc3cccc(N4CCN(C)CC4)c3[nH]2)N1 [I-83]
2.51	77.2 mL/min/kg	16 min	1510 ng·h/mL	601 ng·h/mL	0.73	0.016	0.055	10 to 30 ×10⁻⁶ cm/s	10 to 30 ×10⁻⁶ cm/s	0.1 to 10	0.01 to 100 nM	100 to 1000 nM	CN1CCN(c2cccc3nc([C@H]4CCC[C@@H](c5ncccc5Cl)N4C)[nH]c23)CC1 [I-9, 2-((2R,6S)-6-(3-chloropyridin-2-yl)-1-methylpiperidin-2-yl)-7-(4-methylpiperazin-1-yl)-1H-benzo[d]imidazole]
